Source: patent US12655116B2, “Substituted isophthalic acid diamides” (Bayer Aktiengesellschaft, priority 2020, dated 2026)

Experiments:
SETVI [1] = assay: Pre-emergence herbicidal action against SETVI; assay type: in vivo, Setaria viridis; conditions: Setaria viridis, 504 h; for pest or weed control at 80 g/ha: dosage 80 g/ha
Method in brief: (§1)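 Greenhouse pots of sandy loam held seeds covered with soil, onto which the compound was applied before emergence. An aqueous suspension or emulsion of WP or EC was used at 600 to 800 l/ha with 0.2% wetting agent. Percent damage was judged visually at 3 weeks.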

LOLRI [2] = assay: Post-emergence herbicidal action against LOLRI; assay type: in vivo, Lolium rigidum; conditions: Lolium rigidum, 504 h, dosage 20 g/ha
Method in brief: (§2)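 Foliar application at one-leaf stage of formulated test compounds, aqueous spray at 600–800 l/ha with 0.2% wetting agent. Greenhouse, optimal conditions, ~3 weeks; damage scored visually in % relative to untreated plants.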

VIOTR [3] = assay: Post-emergence herbicidal action against VIOTR; assay type: in vivo, Viola tricolor; conditions: Viola tricolor, 504 h
Method in brief: as §2

MATIN = assay: Post-emergence herbicidal action against MATIN; assay type: in vivo, Matricaria inodora; conditions: Tripleurospermum inodorum, 504 h; for pest or weed control at 5 g/ha: dosage 5 g/ha; for pest or weed control at 20 g/ha: dosage 20 g/ha
Method in brief: as §2

POLCO = assay: Pre-emergence herbicidal action against POLCO; assay type: in vivo, Polygonum convolvulus; conditions: Fallopia convolvulus, 504 h; for pest or weed control at 80 g/ha: dosage 80 g/ha
Method in brief: as §1

ABUTH [4] = assay: Pre-emergence herbicidal action against ABUTH; assay type: in vivo, Abutilon theophrasti; conditions: Abutilon theophrasti, 504 h; for pest or weed control at 80 g/ha: scored visually after 3 weeks vs untreated controls (100% = plants have died, 0% = like control plants); for pest or weed control at 20 g/ha: dosage 20 g/ha, scored visually after 3 weeks vs untreated controls, 100% = plants have died, 0% = like control plants, read-out: Pre-emergence action against ABUTH (herbicidal activity in percent)
Method in brief: as §1

ALOMY [5] = assay: Pre-emergence herbicidal action against ALOMY; assay type: in vivo, Alopecurus myosuroides; conditions: Alopecurus myosuroides, 504 h; 80 g/ha, pre-emergence, scored visually after 3 weeks vs untreated controls (100% = plants have died, 0% = like control plants)
Method in brief: as §1

AMARE [6] = assay: Post-emergence herbicidal action against AMARE; assay type: in vivo, Amaranthus retroflexus; conditions: Amaranthus retroflexus, 504 h, 20 g/ha, visual assessment about 3 weeks after treatment, 100% = plants have died, 0% = like control plants
Method in brief: as §2

PHBPU = assay: Post-emergence herbicidal action against PHBPU; assay type: in vivo, Pharbitis purpurea; conditions: Ipomoea purpurea, 504 h, dosage 20 g/ha
Method in brief: as §2

ABUTH [7] = assay: Post-emergence herbicidal action against ABUTH; assay type: in vivo, Abutilon theophrasti; conditions: Abutilon theophrasti, 504 h, visual assessment about 3 weeks after treatment vs untreated controls; for pest or weed control at 5 g/ha: dosage 5 g/ha; for pest or weed control at 20 g/ha: dosage 20 g/ha
Method in brief: as §2

LOLRI [8] = assay: Pre-emergence herbicidal action against LOLRI; assay type: in vivo, Lolium rigidum; conditions: Lolium rigidum, 504 h, 80 g/ha
Method in brief: as §1

STEME [9] = assay: Pre-emergence herbicidal action against STEME; assay type: in vivo, Stellaria media; conditions: Stellaria media, 504 h; for pest or weed control at 20 g/ha: dosage 20 g/ha; for pest or weed control at 80 g/ha: dosage 80 g/ha
Method in brief: as §1

ALOMY [10] = assay: Post-emergence herbicidal action against ALOMY; assay type: in vivo, Alopecurus myosuroides; conditions: Alopecurus myosuroides, 504 h, visual assessment about 3 weeks after treatment vs untreated controls; for pest or weed control at 5 g/ha: dosage 5 g/ha; for pest or weed control at 20 g/ha: dosage 20 g/ha
Method in brief: as §2

SETVI [11] = assay: Post-emergence herbicidal action against SETVI; assay type: in vivo, Setaria viridis; conditions: Setaria viridis, 504 h; for pest or weed control at 5 g/ha: dosage 5 g/ha; for pest or weed control at 20 g/ha: dosage 20 g/ha
Method in brief: as §2

ECHCG = assay: Pre-emergence herbicidal action against ECHCG; assay type: in vivo, Echinochloa crus-galli; conditions: Echinochloa crus-galli, 504 h
Method in brief: as §1

AMARE [12] = assay: Pre-emergence herbicidal action against AMARE; assay type: in vivo, Amaranthus retroflexus; conditions: Amaranthus retroflexus, 504 h, scored visually after 3 weeks vs untreated controls, 100% = plants have died, 0% = like control plants
Method in brief: as §1

AVEFA = assay: Pre-emergence herbicidal action against AVEFA; assay type: in vivo, Avena fatua; conditions: Avena fatua, 504 h, pre-emergence
Method in brief: as §1

STEME [13] = assay: Post-emergence herbicidal action against STEME; assay type: in vivo, Stellaria media; conditions: Stellaria media, 504 h; for pest or weed control at 5 g/ha: dosage 5 g/ha
Method in brief: as §2

HORMU [14] = assay: Pre-emergence herbicidal action against HORMU; assay type: in vivo, Hordeum murinum; conditions: Hordeum murinum, 504 h; 80 g/ha, pre-emergence
Method in brief: as §1

VIOTR [15] = assay: Pre-emergence herbicidal action against VIOTR; assay type: in vivo, Viola tricolor; conditions: Viola tricolor, 504 h; for pest or weed control at 20 g/ha: dosage 20 g/ha; for pest or weed control at 80 g/ha: dosage 80 g/ha
Method in brief: as §1

HORMU [16] = assay: Post-emergence herbicidal action against HORMU; assay type: in vivo, Hordeum murinum; conditions: Hordeum murinum, 504 h; for pest or weed control at 20 g/ha: dosage 20 g/ha
Method in brief: as §2

VERPE = assay: Post-emergence herbicidal action against VERPE; assay type: in vivo, Veronica persica; conditions: Veronica persica, 504 h, 20 g/ha
Method in brief: as §2

Question: What does the source list for CCc1c(C(=O)Nc2nnnn2C)ccc(C(F)(F)F)c1C(=O)NC1CC1 [Example 1-273]?
Answer: pest or weed control at 20 g/ha (SETVI [1]; dosage 20 g/ha): 100%; pest or weed control at 80 g/ha (SETVI [1]): 100%; pest or weed control at 20 g/ha (LOLRI [2]): 80%; pest or weed control at 5 g/ha (VIOTR [3]): 100%; pest or weed control at 20 g/ha (VIOTR [3]): 100%; pest or weed control at 5 g/ha (MATIN): 100%; pest or weed control at 20 g/ha (MATIN): 100%; pest or weed control at 80 g/ha (POLCO): 90%; pest or weed control at 80 g/ha (ABUTH [4]): 100%; pest or weed control at 20 g/ha (ABUTH [4]): 100%; pest or weed control at 80 g/ha (ALOMY [5]): 90%; pest or weed control at 20 g/ha (AMARE [6]): 100%; pest or weed control at 20 g/ha (PHBPU): 80%; pest or weed control at 5 g/ha (ABUTH [7]): 90%; pest or weed control at 20 g/ha (ABUTH [7]): 90%; pest or weed control at 80 g/ha (LOLRI [8]): 80%; pest or weed control at 20 g/ha (STEME [9]): 100%; pest or weed control at 80 g/ha (STEME [9]): 100%; pest or weed control at 5 g/ha (ALOMY [10]): 80%; pest or weed control at 20 g/ha (ALOMY [10]): 100%; pest or weed control at 5 g/ha (SETVI [11]): 80%; pest or weed control at 20 g/ha (SETVI [11]): 100%; pest or weed control at 20 g/ha (ECHCG): 90%; pest or weed control at 80 g/ha (ECHCG): 100%; pest or weed control at 20 g/ha (AMARE [12]): 100%; pest or weed control at 80 g/ha (AMARE [12]): 100%; pest or weed control at 80 g/ha (AVEFA): 100%; pest or weed control at 20 g/ha (STEME [13]): 100%; pest or weed control at 5 g/ha (STEME [13]): 90%; pest or weed control at 80 g/ha (HORMU [14]): 80%; pest or weed control at 20 g/ha (VIOTR [15]): 100%; pest or weed control at 80 g/ha (VIOTR [15]): 100%; pest or weed control at 5 g/ha (HORMU [16]; dosage 5 g/ha): 80%; pest or weed control at 20 g/ha (HORMU [16]): 90%; pest or weed control at 20 g/ha (VERPE): 90%

Question: With CCn1nnnc1NC(=O)c1ccc(C(F)(F)F)c(C(=O)NC2CC2)c1C [Example 2-27] as the compound, how does the pest or weed control at 80 g/ha (SETVI [1]) read?
Answer: Its pest or weed control at 80 g/ha is 100%.

Question: And the pest or weed control at 20 g/ha (LOLRI [2])?
Answer: The pest or weed control at 20 g/ha was 80%.

Question: What about the pest or weed control at 5 g/ha (VIOTR [3]) of the same compound?
Answer: The pest or weed control at 5 g/ha was 100%.

Question: What about the pest or weed control at 20 g/ha (VIOTR [3]) of the same compound?
Answer: The pest or weed control at 20 g/ha was 100%.

Question: And the pest or weed control at 5 g/ha (MATIN)?
Answer: Its pest or weed control at 5 g/ha is 100%.

Question: What about the pest or weed control at 20 g/ha (MATIN) of the same compound?
Answer: The pest or weed control at 20 g/ha was 100%.

Question: What about the pest or weed control at 20 g/ha (POLCO; dosage 20 g/ha) of the same compound?
Answer: Its pest or weed control at 20 g/ha is 80%.

Question: What about the pest or weed control at 80 g/ha (POLCO) of the same compound?
Answer: The pest or weed control at 80 g/ha was 100%.

Question: And the pest or weed control at 80 g/ha (ABUTH [4])?
Answer: Its pest or weed control at 80 g/ha is 100%.

Question: And the pest or weed control at 20 g/ha (ABUTH [4])?
Answer: The pest or weed control at 20 g/ha was 100%.

Question: What about the pest or weed control at 80 g/ha (ALOMY [5]) of the same compound?
Answer: Its pest or weed control at 80 g/ha is 100%.

Question: And the pest or weed control at 20 g/ha (AMARE [6])?
Answer: The pest or weed control at 20 g/ha was 100%.

Question: What about the pest or weed control at 20 g/ha (PHBPU) of the same compound?
Answer: The pest or weed control at 20 g/ha was 90%.

Question: And the pest or weed control at 5 g/ha (ABUTH [7])?
Answer: Its pest or weed control at 5 g/ha is 100%.

Question: And the pest or weed control at 20 g/ha (ABUTH [7])?
Answer: The pest or weed control at 20 g/ha was 100%.

Question: And the pest or weed control at 80 g/ha (LOLRI [8])?
Answer: Its pest or weed control at 80 g/ha is 80%.

Question: And the pest or weed control at 20 g/ha (STEME [9])?
Answer: The pest or weed control at 20 g/ha was 100%.

Question: And the pest or weed control at 80 g/ha (STEME [9])?
Answer: Its pest or weed control at 80 g/ha is 100%.

Question: And the pest or weed control at 5 g/ha (ALOMY [10])?
Answer: The pest or weed control at 5 g/ha was 80%.

Question: And the pest or weed control at 20 g/ha (ALOMY [10])?
Answer: The pest or weed control at 20 g/ha was 90%.

Question: And the pest or weed control at 5 g/ha (SETVI [11])?
Answer: The pest or weed control at 5 g/ha was 80%.

Question: And the pest or weed control at 20 g/ha (SETVI [11])?
Answer: The pest or weed control at 20 g/ha was 100%.

Question: What about the pest or weed control at 20 g/ha (ECHCG) of the same compound?
Answer: Its pest or weed control at 20 g/ha is 90%.

Question: What about the pest or weed control at 80 g/ha (ECHCG) of the same compound?
Answer: Its pest or weed control at 80 g/ha is 100%.

Question: What about the pest or weed control at 20 g/ha (AMARE [12]) of the same compound?
Answer: Its pest or weed control at 20 g/ha is 100%.

Question: And the pest or weed control at 80 g/ha (AMARE [12])?
Answer: Its pest or weed control at 80 g/ha is 100%.

Question: What about the pest or weed control at 80 g/ha (AVEFA) of the same compound?
Answer: The pest or weed control at 80 g/ha was 100%.

Question: What about the pest or weed control at 20 g/ha (AVEFA; 20 g/ha, scored visually after 3 weeks, 100% = plants have died, 0% = like control plants) of the same compound?
Answer: The pest or weed control at 20 g/ha was 80%.

Question: What about the pest or weed control at 20 g/ha (STEME [13]) of the same compound?
Answer: The pest or weed control at 20 g/ha was 100%.

Question: What about the pest or weed control at 5 g/ha (STEME [13]) of the same compound?
Answer: Its pest or weed control at 5 g/ha is 100%.

Question: What about the pest or weed control at 80 g/ha (HORMU [14]) of the same compound?
Answer: Its pest or weed control at 80 g/ha is 90%.

Question: What about the pest or weed control at 20 g/ha (VIOTR [15]) of the same compound?
Answer: The pest or weed control at 20 g/ha was 100%.

Question: And the pest or weed control at 80 g/ha (VIOTR [15])?
Answer: The pest or weed control at 80 g/ha was 100%.

Question: And the pest or weed control at 20 g/ha (HORMU [16])?
Answer: The pest or weed control at 20 g/ha was 90%.

Question: And the pest or weed control at 20 g/ha (VERPE)?
Answer: The pest or weed control at 20 g/ha was 80%.
